From patent US20140206682A1, “COMPOUNDS AND COMPOSITIONS AS PDGFR KINASE INHIBITORS” (NOVARTIS PHARMACEUTICALS UK LIMITED, priority 2011, published 2014)

System: PDGFR
Assay: Rat A10 cell proliferation assay
Type: cell-based
Conditions: Rat A10 cells, recombinant rat PDGF-BB, CellTiter-Glo after 68 hours
Description: Compounds of Formula (I) provided herein were assayed to measure their capacity to inhibit c-kit and PDGFR kinases using the appropriate assay described below: c-Kit inhibition was evaluated using the Mo7e cell proliferation assay, and PDGFR inhibition was evaluated using the Rat A10 cell proliferation assay and the Human TG/HA-VSMC cell proliferation assay.
Rat A10 cells (ATCC) were resuspended in DMEM supplemented with 1% FBS and 10 ng/mL recombinant rat PDGF-BB at 20,000 cells/mL. The cells were aliquoted into 384 well plates at 50 μL/well and incubated for 4 hours at 37° C. 0.5 μL of test compound 3-fold serially diluted in DMSO was added to each well. The plates were returned to the incubator for a further 68 hours. 25 μL of CellTiter-Glo (Promega) was added to each well and the plates were incubated on the bench for 15 minutes. Luminescence was then read using a CLIPR CCD camera (Molecular Devices).

Structure (SMILES) | IC50 (Table 1) | IC50 (Table 2)
Cc1ccc2ncc(C(=O)Nc3cc(C(=O)N[C@@H]4c5cc(Cl)ccc5C[C@@H]4O)ccc3F)n2c1 (stereo in doubt) [F33, N-(5-{[(1R,2S)-6-chloro-2-hydroxy-2,3-dihydro-1H-inden-1-yl]carbamoyl}-2-fluorophenyl)-6-methylimidazo[1,2-a]pyridine-3-carboxamide] | 163 nM | 
Cc1ccc2ncc(C(=O)Nc3cc(C(=O)N[C@H]4c5ccccc5C[C@H]4O)ccc3F)n2c1 [F36, N-(2-fluoro-5-{[(1S,2R)-2-hydroxy-2,3-dihydro-1H-inden-1-yl]carbamoyl}phenyl)-6-methylimidazo[1,2-a]pyridine-3-carboxamide] |  | 234 nM
O=C(NC[C@@H](O)c1ccccc1)c1ccc(F)c(NC(=O)c2cnc3ccccn23)c1 [F94, N-(2-fluoro-5-{[(2S)-2-hydroxy-2-phenylethyl]carbamoyl}phenyl)imidazo[1,2-a]pyridine-3-carboxamide] |  | 239 nM
Cc1ccc2ncc(C(=O)Nc3cc(C(=O)N[C@@H]4c5cc(F)ccc5C[C@@H]4O)c(C)cc3F)n2c1 [F89, N-(2-fluoro-5-{[(1R,2S)-6-fluoro-2-hydroxy-2,3-dihydro-1H-inden-1-yl]carbamoyl}-4-methylphenyl)-6-methylimidazo[1,2-a]pyridine-3-carboxamide] |  | 1810 nM
O=C(NCC(O)C(F)(F)F)c1ccc(F)c(NC(=O)c2cnc3ccccn23)c1 (stereo not shown) [F63, N-{2-fluoro-5-[(3,3,3-trifluoro-2-hydroxypropyl)carbamoyl]phenyl}imidazo[1,2-a]pyridine-3-carboxamide] |  | 1060 nM
O=C(N[C@@H]1CCC[C@@H]1O)c1ccc(F)c(NC(=O)c2cnc3ccccn23)c1 (stereo in doubt) [F66, N-(2-fluoro-5-{[(1R,2S)-2-hydroxycyclopentyl]carbamoyl}phenyl)imidazo[1,2-a]pyridine-3-carboxamide] |  | 1180 nM
O=C(N[C@@H]1CCCC[C@H]1O)c1ccc(F)c(NC(=O)c2cnc3ccccn23)c1 [F56, N-(2-fluoro-5-{[(1R,2R)-2-hydroxycyclohexyl]carbamoyl}phenyl)imidazo[1,2-a]pyridine-3-carboxamide] |  | 521 nM
Cc1ccc(C(=O)NC(CO)C(C)C)cc1NC(=O)c1cnc2ccccn12 (stereo not shown) [F3, N-{5-[(1-hydroxy-3-methylbutan-2-yl)carbamoyl]-2-methylphenyl}imidazo[1,2-a]pyridine-3-carboxamide] | 175 nM | 
O=C(NC1CCCC[C@H]1CO)c1ccc(F)c(NC(=O)c2cnc3ccccn23)c1 (stereo in doubt) [F43, N-(2-fluoro-5-{[(1R,2R)-2-(hydroxymethyl)cyclohexyl]carbamoyl}phenyl)imidazo[1,2-a]pyridine-3-carboxamide] |  | 294 nM
CSCC[C@@H](CO)NC(=O)c1ccc(F)c(NC(=O)c2cnc3ccccn23)c1 [F96, N-(2-fluoro-5-{[(2S)-1-hydroxy-4-(methylsulfanyl)butan-2-yl]carbamoyl}phenyl)imidazo[1,2-a]pyridine-3-carboxamide] |  | 556 nM
Cc1ccn2c(C(=O)Nc3cc(C(=O)N[C@H]4CCCC[C@@H]4O)ccc3F)cnc2c1 [F115, N-(2-fluoro-5-{[(1S,2S)-2-hydroxycyclohexyl]carbamoyl}phenyl)-7-methylimidazo[1,2-a]pyridine-3-carboxamide] | 44 nM | 
O=C(N[C@@H]1Cc2ccccc2[C@H]1O)c1ccc(F)c(NC(=O)c2cnc3ccccn23)c1 [F37, N-(2-fluoro-5-{[(1R,2R)-1-hydroxy-2,3-dihydro-1H-inden-2-yl]carbamoyl}phenyl)imidazo[1,2-a]pyridine-3-carboxamide] |  | 242 nM
O=C(N[C@@H](CO)[C@@H](O)c1ccccc1)c1ccc(F)c(NC(=O)c2cnc3ccccn23)c1 [F123, N-(5-{[(1S,2S)-1,3-dihydroxy-1-phenylpropan-2-yl]carbamoyl}-2-fluorophenyl)imidazo[1,2-a]pyridine-3-carboxamide] | 44 nM | 
Cn1nccc1-c1ccn2c(C(=O)Nc3cc(C(=O)N[C@@H](CO)[C@@H](O)c4ccccc4)ccc3F)cnc2c1 [F128, N-(5-{[(1S,2S)-1,3-dihydroxy-1-phenylpropan-2-yl]carbamoyl}-2-fluorophenyl)-7-(1-methyl-1H-pyrazol-5-yl)imidazo[1,2-a]pyridine-3-carboxamide] | 56 nM | 
O=C(NC1Cc2ccccc2C1O)c1ccc(F)c(NC(=O)c2cnc3ccccn23)c1 (stereo not shown) [F53, N-{2-fluoro-5-[(1-hydroxy-2,3-dihydro-1H-inden-2-yl)carbamoyl]phenyl}imidazo[1,2-a]pyridine-3-carboxamide] |  | 433 nM
Cc1ccc(C(=O)NCc2ccccc2N2CCCC(O)C2)cc1NC(=O)c1cnc2ccccn12 (stereo not shown) [F30, N-[5-({[2-(3-hydroxypiperidin-1-yl)phenyl]methyl}carbamoyl)-2-methylphenyl]imidazo[1,2-a]pyridine-3-carboxamide] | 27 nM | 

Structure (SMILES) | IC50 (Table 1) | IC50 (Table 2)
O=C(N[C@H](CO)CC1CCCCC1)c1cccc(NC(=O)c2cnc3ccccn23)c1 [F48, N-(3-{[(2S)-1-cyclohexyl-3-hydroxypropan-2-yl]carbamoyl}phenyl)imidazo[1,2-a]pyridine-3-carboxamide] |  | 363 nM
O=C(N[C@@H]1c2ccccc2C[C@H]1O)c1ccc(F)c(NC(=O)c2cnc3ccccn23)c1 [F7, N-(2-fluoro-5-{[(1R,2R)-2-hydroxy-2,3-dihydro-1H-inden-1-yl]carbamoyl}phenyl)imidazo[1,2-a]pyridine-3-carboxamide] | 138 nM | 
[2H]c1c([2H])c([2H])n2c(C(=O)Nc3cc(C(=O)N[C@H]4c5ccccc5C[C@H]4O)ccc3F)cnc2c1[2H] [F55, N-(2-fluoro-5-{[(1S,2R)-2-hydroxy-2,3-dihydro-1H-inden-1-yl]carbamoyl}phenyl)-5,6,7,8-tetrahydrogenioimidazo[1,2-a]pyridine-3-carboxamide] |  | 484 nM
O=C(N[C@H]1c2ccccc2C[C@H]1O)c1ccc(F)c(NC(=O)c2cnc3ccc(-n4ccnc4)cn23)c1 [F81, N-(2-fluoro-5-{[(1S,2R)-2-hydroxy-2,3-dihydro-1H-inden-1-yl]carbamoyl}phenyl)-6-(1H-imidazol-1-yl)imidazo[1,2-a]pyridine-3-carboxamide] |  | > 10000 nM
COC[C@H](NC(=O)c1ccc(F)c(NC(=O)c2cnc3cc(-c4ccnn4C)ccn23)c1)[C@@H](O)c1ccccc1 [F129, N-(2-fluoro-5-{[(1S,2S)-1-hydroxy-3-methoxy-1-phenylpropan-2-yl]carbamoyl}phenyl)-7-(1-methyl-1H-pyrazol-5-yl)imidazo[1,2-a]pyridine-3-carboxamide] | 14 nM | 
Cc1ccc(C(=O)NC(CO)Cc2ccccc2)cc1NC(=O)c1cnc2ccccn12 (stereo not shown) [F1, N-{5-[(1-hydroxy-3-phenylpropan-2-yl)carbamoyl]-2-methylphenyl}imidazo[1,2-a]pyridine-3-carboxamide] | 82 nM | 
O=C(N[C@H](CO)[C@H](O)c1ccccc1)c1ccc(F)c(NC(=O)c2cnc3ccccn23)c1 [F107, N-(5-{[(1R,2R)-1,3-dihydroxy-1-phenylpropan-2-yl]carbamoyl}-2-fluorophenyl)imidazo[1,2-a]pyridine-3-carboxamide] |  | 265 nM
CSc1ccc([C@H](O)[C@H](CO)NC(=O)c2ccc(F)c(NC(=O)c3cnc4ccccn34)c2)cc1 [F92, N-(5-{[(1S,2S)-1,3-dihydroxy-1-[4-(methylsulfanyl)phenyl]propan-2-yl]carbamoyl}-2-fluorophenyl)imidazo[1,2-a]pyridine-3-carboxamide] |  | 283 nM
O=C(NCC1(O)CCC1)c1cccc(NC(=O)c2cnc3ccccn23)c1 [F73, N-(3-{[(1-hydroxycyclobutyl)methyl]carbamoyl}phenyl)imidazo[1,2-a]pyridine-3-carboxamide] |  | 3270 nM
O=C(N[C@@H]1CCSC[C@H]1O)c1ccc(F)c(NC(=O)c2cnc3ccccn23)c1 [F105, N-(2-fluoro-5-{[(3S,4R)-3-hydroxythian-4-yl]carbamoyl}phenyl)imidazo[1,2-a]pyridine-3-carboxamide] |  | 840 nM
COc1ccc2c(c1)[C@@H](NC(=O)c1ccc(F)c(NC(=O)c3cnc4ccc(C)cn34)c1)[C@@H](O)C2 (stereo in doubt) [F45, N-(2-fluoro-5-{[(1R,2S)-2-hydroxy-6-methoxy-2,3-dihydro-1H-inden-1-yl]carbamoyl}phenyl)-6-methylimidazo[1,2-a]pyridine-3-carboxamide] |  | 345 nM
O=C(NCC1(O)CCNCC1)c1ccc(F)c(NC(=O)c2cnc3ccccn23)c1 [F100, N-(2-fluoro-5-{[(4-hydroxypiperidin-4-yl)methyl]carbamoyl}phenyl)imidazo[1,2-a]pyridine-3-carboxamide] |  | > 9020 nM
Cc1ccc2ncc(C(=O)Nc3cc(C(=O)N[C@@H]4c5ccccc5C[C@@H]4O)c(C)cc3F)n2c1 [F88, N-(2-fluoro-5-{[(1R,2S)-2-hydroxy-2,3-dihydro-1H-inden-1-yl]carbamoyl}-4-methylphenyl)-6-methylimidazo[1,2-a]pyridine-3-carboxamide] |  | 2190 nM
O=C(N[C@H]1CCC[C@H]1O)c1ccc(F)c(NC(=O)c2cnc3ccccn23)c1 [F74, N-(2-fluoro-5-{[(1S,2R)-2-hydroxycyclopentyl]carbamoyl}phenyl)imidazo[1,2-a]pyridine-3-carboxamide] |  | 3480 nM
O=C(NC[C@@H](O)c1ccc(Cl)cc1)c1ccc(F)c(NC(=O)c2cnc3ccccn23)c1 [F121, N-(5-{[(2S)-2-(4-chlorophenyl)-2-hydroxyethyl]carbamoyl}-2-fluorophenyl)imidazo[1,2-a]pyridine-3-carboxamide] | 13 nM | 
